Values after ≈ are worked out from the molar mass of the structure shown. Where two headings read alike, the source gives them in different places.
Experiments:
[1] = human microsomes; cited from earlier work
[2] = mouse microsomes; cited from earlier work
in vitro = details: for microsomal CLint / microsomal CLint at 1 μg/ml: microsomes, pH 7.4; for Microsomal stability / clearance (in words), human: human microsomes; for Microsomal stability / clearance (in words), mouse: mouse microsomes
Procedure: The intrinsic clearance (CLint) of compounds was measured in both mouse and human liver microsomes. Briefly, 100 μg of mouse (CD-1) or human liver microsomes (both from Invitrogen) were mixed in 0.1 M phosphate buffer (pH 7.4) containing 0.01 μl of compound dissolved in dimethyl sulfoxide (DMSO) at 10 mg/ml in a final volume of 50 μl. In parallel, an NADPH-regenerating system (Promega) was prepared in 0.1 M phosphate buffer (pH 7.4). […] After 0, 5, 15, 30, and 60 min, the reactions were terminated by transferring […] into 100 μl of acetonitrile and placing the mixture on ice for 30 min for full protein precipitation. […] After 0 and 60 min, the reactions were terminated, prepared and analyzed as previously described.

HepG2 cells = details: for TD50 / Cytotoxicity (in words) / Concentration of mild cytotoxicity: HepG2 cells; for TD50: 3 days; for Selective index: ratio TD50 (HepG2) to MIC99 (H37Rv)
M. tuberculosis H37Rv [3] = test system: M. tuberculosis H37Rv; parameters: method as in PMID 24500695; details: ref [5]; cited from earlier work
M. tuberculosis H37Rv [4] = assay: microbe, parasite or virus in culture; type: cell-based
[5] = Water solubility, shake flask method; type: physicochemical; details: for solubility at 3 days: 25 °C, water, thermodynamic from solid
Procedure: Water solubility measurements were performed using the shake flask method ([28]). Approximately 1 ml of water was added to 1 mg of compound in an Eppendorf tube, followed by incubation for 3 days at 25°C with shaking at 800 rpm. Suspensions were centrifuged at 16,100 × g for 10 min, and the supernatant was filtered using 0.22-μm-pore size filters. Filtrates were injected onto a high-performance liquid chromatography (HPLC) column (Dionex), and the amount of compound was quantified using a calibration curve.

M. tuberculosis H37Rv [6] = assay: Murine model of chronic TB; type: in vivo, Mycobacterium tuberculosis; details: BALB/cByJ mice
[7] = Mycobacterium tuberculosis, H37RV, REMA, 7H9 broth, 6 days + 24 h resazurin, read-out: MIC99 H37Rv
[8] = 25 mg/kg by gavage 5 days a week for 4 weeks
[9] = 50 mg/kg by gavage 5 days a week for 4 weeks
[10] = Mycobacterium tuberculosis, H37Rv, read-out: MIC

Structure (SMILES)	TD50 (HepG2 cells) [µg/mL]	MIC (M. tuberculosis H37Rv [4]; [7]) [µg/mL]	melting point [°C]	microsomal CLint at 1 μg/ml (in vitro; CD-1, mouse) [µL/min/mg]	Microsomal stability / clearance (in words), human (in vitro)	microsomal CLint at 1 μg/ml (in vitro; human) [µL/min/mg]	solubility at 3 days [5] [µg/mL]	other results
C[C@H]1COC2(CCN(c3nc(=O)c4cc(C(F)(F)F)cc([N+](=O)[O-])c4s3)CC2)O1 [BTZ043]								CLint human microsome [1]: 4.20 μl/min/mg protein; CLint mouse microsome [2]: 16.5 μl/min/mg protein
NC(=O)N1c2ccccc2C=Cc2ccccc21 [Carbamazepine, reference compound]								microsomal CLint (in vitro; CD-1, mouse): 0.6 µL/min/mg; microsomal CLint (in vitro; human): 0.4 µL/min/mg
O=c1nc(N2CCN(CC3CCCCC3)CC2)sc2c([N+](=O)[O-])cc(C(F)(F)F)cc12 [PBTZ169, macozinone, reference compound]	44.00	0.0002						MIC against M. tuberculosis (M. tuberculosis H37Rv [3]): 0.3 nM (≈ 0.137 ng/mL); CLint human microsome [1]: 28 μl/min/mg protein; CLint mouse microsome [2]: 36.7 μl/min/mg protein; Times more soluble in water than calculated [5]: 400 times; Bacterial burden in lungs lower than untreated control (M. tuberculosis H37Rv [6]; [8]): 1.03 log10 CFU; Bacterial burden in spleens lower than untreated control (M. tuberculosis H37Rv [6]; [8]): 1.47 log10 CFU
CO[C@H]1/C=C/O[C@@]2(C)Oc3c(C)c(O)c4c(O)c(c(/C=N/N5CCN(C)CC5)c(O)c4c3C2=O)NC(=O)/C(C)=C\C=C\[C@H](C)[C@H](O)[C@@H](C)[C@@H](O)[C@@H](C)[C@H](OC(C)=O)[C@@H]1C [Rifampin, reference compound]	100.00	0.0008						
Cc1noc(C)c1S(=O)(=O)N1CCN(c2nc(=O)c3cc(C(F)(F)F)cc([N+](=O)[O-])c3s2)CC1 [compound 11326056]		0.06	265 to 267					
CCn1cc(S(=O)(=O)N2CCN(c3nc(=O)c4cc(C(F)(F)F)cc([N+](=O)[O-])c4s3)CC2)c(C)n1 [compound 11326058]		0.4	218 to 220					
O=c1nc(N2CCN(S(=O)(=O)c3cccs3)CC2)sc2c([N+](=O)[O-])cc(C(F)(F)F)cc12 [compound 11326059]	100	0.004	210 to 214	18.6	medium clearances	16.8	< 0.01	Cytotoxicity (in words) (HepG2 cells): not cytotoxic; Selective index (HepG2 cells): 25,000; Microsomal stability / clearance (in words), mouse (in vitro): medium clearances; Times less soluble in water than 11626095, 11626092 and 11626091 [5]: at least 100 times
Cc1nn(C)cc1S(=O)(=O)N1CCN(c2nc(=O)c3cc(C(F)(F)F)cc([N+](=O)[O-])c3s2)CC1 [compound 11326061]		0.4	200 to 203					
CC(=O)c1ccc(S(=O)(=O)N2CCN(c3nc(=O)c4cc(C(F)(F)F)cc([N+](=O)[O-])c4s3)CC2)cc1 [compound 11326119]		50	280 to 282					
O=c1nc(N2CCN(S(=O)(=O)c3ccc(OC(F)(F)F)cc3)CC2)sc2c([N+](=O)[O-])cc(C(F)(F)F)cc12 [compound 11326120]		0.1						
O=c1nc(N2CCN(S(=O)(=O)c3ccc(Cl)s3)CC2)sc2c([N+](=O)[O-])cc(C(F)(F)F)cc12 [compound 11326121]		0.03	210 to 213					
O=c1nc(N2CCN(S(=O)(=O)c3cc(Cl)c(Cl)s3)CC2)sc2c([N+](=O)[O-])cc(C(F)(F)F)cc12 [compound 11326122]		0.8	265 to 267					
O=c1nc(N2CCN(S(=O)(=O)c3ccc(C(F)(F)F)cc3)CC2)sc2c([N+](=O)[O-])cc(C(F)(F)F)cc12 [compound 11326123]		0.1	222 to 225					
CCCCc1ccc(S(=O)(=O)N2CCN(c3nc(=O)c4cc(C(F)(F)F)cc([N+](=O)[O-])c4s3)CC2)cc1 [compound 11326124]		800	226 to 229					
CCC(C)(C)c1ccc(S(=O)(=O)N2CCN(c3nc(=O)c4cc(C(F)(F)F)cc([N+](=O)[O-])c4s3)CC2)cc1 [compound 11326125]		0.5	231 to 233					
Cc1oncc1S(=O)(=O)N1CCN(c2nc(=O)c3cc(C(F)(F)F)cc([N+](=O)[O-])c3s2)CC1 [compound 11326126]		1.6	281 to 283					
O=c1nc(N2CCN(S(=O)(=O)C3CCCCC3)CC2)sc2c([N+](=O)[O-])cc(C(F)(F)F)cc12 [compound 11326127]	>100	0.006		19	medium clearances	21.5	< 0.01	Cytotoxicity (in words) (HepG2 cells): not cytotoxic; Microsomal stability / clearance (in words), mouse (in vitro): medium clearances; MIC99 (M. tuberculosis H37Rv [4]; Mycobacterium tuberculosis, H37RV): 6 nM (≈ 3.04 ng/mL); Times less soluble in water than 11626095, 11626092 and 11626091 [5]: at least 100 times
COC(=O)c1sccc1S(=O)(=O)N1CCN(c2nc(=O)c3cc(C(F)(F)F)cc([N+](=O)[O-])c3s2)CC1 [compound 11326128]		0.1	127 to 129					
O=c1nc(N2CCN(S(=O)(=O)C3CC3)CC2)sc2c([N+](=O)[O-])cc(C(F)(F)F)cc12 [compound 11626091]	8.10	0.003	201 to 204	2.7	lowest clearances	9.7	8.6 ± 3.8 (≈ 18.5 µM)	Concentration of mild cytotoxicity (HepG2 cells): around 10 μg/ml; Selective index (HepG2 cells): 2,700; Microsomal stability / clearance (in words), mouse (in vitro): lowest clearances; Fold less active than MCZ (MIC99 relative to MCZ) (M. tuberculosis H37Rv [4]; H37Rv): 15 fold; Bacterial burden in lungs lower than untreated control (M. tuberculosis H37Rv [6]; [9]): 0.46 log10 CFU; Bacterial burden in spleens lower than untreated control (M. tuberculosis H37Rv [6]; [9]): 1.03 log10 CFU
CCS(=O)(=O)N1CCN(c2nc(=O)c3cc(C(F)(F)F)cc([N+](=O)[O-])c3s2)CC1 [compound 11626092]	8.90	0.003	204 to 207	3	lowest clearances	1.4	10.7 ± 4.6 (≈ 23.6 µM)	Concentration of mild cytotoxicity (HepG2 cells): around 10 μg/ml; Selective index (HepG2 cells): 2,967; Microsomal stability / clearance (in words), mouse (in vitro): lowest clearances; MIC (M. tuberculosis H37Rv [4]; [10]): 0.003 µg/mL (≈ 0.00663 µM)
CCCCS(=O)(=O)N1CCN(c2nc(=O)c3cc(C(F)(F)F)cc([N+](=O)[O-])c3s2)CC1 [compound 11626093]	>100	0.001	215 to 219	42	metabolically stable	6.4	0.105 ± 0.05 (≈ 0.219 µM)	Cytotoxicity (in words) (HepG2 cells): not cytotoxic; Selective index (HepG2 cells): >100,000; Microsomal stability / clearance (in words), mouse (in vitro): highly unstable; Fold less active than MCZ (MIC99 relative to MCZ) (M. tuberculosis H37Rv [4]; H37Rv): 5 fold; MIC (M. tuberculosis H37Rv [4]; H37Rv): 1 µg/mL (≈ 2.08 µM); Times less soluble in water than 11626095, 11626092 and 11626091 [5]: at least 100 times
O=c1nc(N2CCN(S(=O)(=O)c3cccc4cnccc34)CC2)sc2c([N+](=O)[O-])cc(C(F)(F)F)cc12 [compound 11626094]	100.00	0.01	243 to 245	24	highly unstable	277	0.088 ± 0.04 (≈ 0.16 µM)	Cytotoxicity (in words) (HepG2 cells): not cytotoxic; Selective index (HepG2 cells): 10,000; Times less soluble in water than 11626095, 11626092 and 11626091 [5]: at least 100 times
CS(=O)(=O)N1CCN(c2nc(=O)c3cc(C(F)(F)F)cc([N+](=O)[O-])c3s2)CC1 [compound 11626095]	7.80	0.02	186 to 188	0.9	lowest clearances	1	10.6 ± 1.8 (≈ 24.2 µM)	Concentration of mild cytotoxicity (HepG2 cells): around 10 μg/ml; Selective index (HepG2 cells): 390; Microsomal stability / clearance (in words), mouse (in vitro): lowest clearances; MIC (M. tuberculosis H37Rv [4]; [10]): 0.02 µg/mL (≈ 0.0456 µM)

From publication PMC6153800, “Structure-Based Drug Design and Characterization of Sulfonyl-Piperazine Benzothiazinone Inhibitors of DprE1 from Mycobacterium tuberculosis” (Antimicrobial Agents and Chemotherapy, 2018)
